Entries after “also recorded” stand apart in the source; their conditions may differ.
Key:
[1] = tested on: transgenic pancreatic cancer models; conditions: cited from earlier work
[2] = phase I dose escalation: DLTs, MTD and treatment-emergent adverse events; type: in vivo, human; conditions: for patients who experienced DLTs: modified DLT criteria

CC1=C2C[C@H]3[C@@H](CC[C@@H]4C[C@H](NS(C)(=O)=O)CC[C@@]43C)[C@@H]2CC[C@@]2(C1)O[C@@H]1C[C@H](C)CN[C@H]1[C@H]2C [IPI-926]
intratumoral concentration of gemcitabine [1]: enhanced intratumoral concentration of gemcitabine | DLTs per total patients treated ([2]; 20 mg QD): 0/1 | DLTs per total patients treated ([2]; 30 mg QD): 0/1 | DLTs per total patients treated ([2]; 40 mg QD): 0/1 | DLTs per total patients treated ([2]; 60 mg QD): 0/1 | DLTs per total patients treated ([2]; 90 mg QD): 0/1 | ALT elevation (lab), treatment-emergent adverse event ([2]; 130 mg (n = 56), Grade 1–2): 40 (71) n (%) | AST elevation (lab), treatment-emergent adverse event ([2]; 130 mg (n = 56), Grade 1–2): 41 (73) n (%) | Alopecia, treatment-emergent adverse event ([2]; 130 mg (n = 56), Grade 1–2): 17 (30) n (%) | Decreased appetite, treatment-emergent adverse event ([2]; 130 mg (n = 56), Grade 1–2): 12 (21) n (%) | Diarrhea, treatment-emergent adverse event ([2]; 130 mg (n = 56), Grade 1–2): 15 (27) n (%) | Dysgeusia, treatment-emergent adverse event ([2]; 130 mg (n = 56), Grade 1–2): 6 (11) n (%) | Fatigue, treatment-emergent adverse event ([2]; 130 mg (n = 56), Grade 1–2): 29 (52) n (%) | Muscle spasms, treatment-emergent adverse event ([2]; 130 mg (n = 56), Grade 1–2): 11 (20) n (%) | Nausea, treatment-emergent adverse event ([2]; 130 mg (n = 56), Grade 1–2): 23 (41) n (%) | Thrombocytopenia (lab), treatment-emergent adverse event ([2]; 130 mg (n = 56), Grade 1–2): 12 (21) n (%) | Vomiting, treatment-emergent adverse event ([2]; 130 mg (n = 56), Grade 1–2): 11 (20) n (%) | ALT elevation (lab), treatment-emergent adverse event ([2]; 130 mg (n = 56), Grade ≥3): 4 (7) n (%) | AST elevation (lab), treatment-emergent adverse event ([2]; 130 mg (n = 56), Grade ≥3): 2 (4) n (%) | Alopecia, treatment-emergent adverse event ([2]; 130 mg (n = 56), Grade ≥3): 0 (0) n (%) | Decreased appetite, treatment-emergent adverse event ([2]; 130 mg (n = 56), Grade ≥3): 0 (0) n (%) | Diarrhea, treatment-emergent adverse event ([2]; 130 mg (n = 56), Grade ≥3): 0 (0) n (%) | Dysgeusia, treatment-emergent adverse event ([2]; 130 mg (n = 56), Grade ≥3): 1 (2) n (%) | Fatigue, treatment-emergent adverse event ([2]; 130 mg (n = 56), Grade ≥3): 3 (5) n (%) | Hemoglobin (lab), treatment-emergent adverse event ([2]; 130 mg (n = 56), Grade ≥3): 2 (4) n (%) | Muscle spasms, treatment-emergent adverse event ([2]; 130 mg (n = 56), Grade ≥3): 1 (2) n (%) | Nausea, treatment-emergent adverse event ([2]; 130 mg (n = 56), Grade ≥3): 0 (0) n (%) | Thrombocytopenia (lab), treatment-emergent adverse event ([2]; 130 mg (n = 56), Grade ≥3): 3 (5) n (%) | Vomiting, treatment-emergent adverse event ([2]; 130 mg (n = 56), Grade ≥3): 0 (0) n (%) | DLTs per total patients treated ([2]; 130 mg QD): 0/56 | ALT elevation (lab), treatment-emergent adverse event ([2]; 160 mg (n = 18), Grade 1–2): 10 (55) n (%) | AST elevation (lab), treatment-emergent adverse event ([2]; 160 mg (n = 18), Grade 1–2): 14 (78) n (%) | Alopecia, treatment-emergent adverse event ([2]; 160 mg (n = 18), Grade 1–2): 4 (22) n (%) | Decreased appetite, treatment-emergent adverse event ([2]; 160 mg (n = 18), Grade 1–2): 5 (28) n (%) | Diarrhea, treatment-emergent adverse event ([2]; 160 mg (n = 18), Grade 1–2): 2 (11) n (%) | Dysgeusia, treatment-emergent adverse event ([2]; 160 mg (n = 18), Grade 1–2): 4 (22) n (%) | Fatigue, treatment-emergent adverse event ([2]; 160 mg (n = 18), Grade 1–2): 8 (44) n (%) | Hemoglobin (lab), treatment-emergent adverse event ([2]; 160 mg (n = 18), Grade 1–2): 12 (66) n (%) | Muscle spasms, treatment-emergent adverse event ([2]; 160 mg (n = 18), Grade 1–2): 6 (33) n (%) | Nausea, treatment-emergent adverse event ([2]; 160 mg (n = 18), Grade 1–2): 6 (33) n (%) | Thrombocytopenia (lab), treatment-emergent adverse event ([2]; 160 mg (n = 18), Grade 1–2): 4 (22) n (%) | Vomiting, treatment-emergent adverse event ([2]; 160 mg (n = 18), Grade 1–2): 6 (33) n (%) | ALT elevation (lab), treatment-emergent adverse event ([2]; 160 mg (n = 18), Grade ≥3): 5 (28) n (%) | AST elevation (lab), treatment-emergent adverse event ([2]; 160 mg (n = 18), Grade ≥3): 2 (11) n (%) | Alopecia, treatment-emergent adverse event ([2]; 160 mg (n = 18), Grade ≥3): 0 (0) n (%) | Decreased appetite, treatment-emergent adverse event ([2]; 160 mg (n = 18), Grade ≥3): 0 (0) n (%) | Diarrhea, treatment-emergent adverse event ([2]; 160 mg (n = 18), Grade ≥3): 1 (6) n (%) | Dysgeusia, treatment-emergent adverse event ([2]; 160 mg (n = 18), Grade ≥3): 1 (6) n (%) | Fatigue, treatment-emergent adverse event ([2]; 160 mg (n = 18), Grade ≥3): 3 (17) n (%) | Hemoglobin (lab), treatment-emergent adverse event ([2]; 160 mg (n = 18), Grade ≥3): 1 (6) n (%) | Muscle spasms, treatment-emergent adverse event ([2]; 160 mg (n = 18), Grade ≥3): 0 (0) n (%) | Nausea, treatment-emergent adverse event ([2]; 160 mg (n = 18), Grade ≥3): 0 (0) n (%) | Thrombocytopenia (lab), treatment-emergent adverse event ([2]; 160 mg (n = 18), Grade ≥3): 0 (0) n (%) | Vomiting, treatment-emergent adverse event ([2]; 160 mg (n = 18), Grade ≥3): 0 (0) n (%) | DLT description ([2]; 160 mg QD): Grade 3 AST and ALT elevation | patients with DLT (grade 3 ALT and grade 3 AST elevation) ([2]; 160 mg QD): 1 of 6 | DLTs per total patients treated ([2]; 160 mg QD (dose selected for phase II)): 1/18 | patients with ≥grade 3 ALT elevations ([2]; 160 mg QD, the MTD): 28% | patients with ≥grade 3 AST elevations ([2]; 160 mg QD, the MTD): 11% | DLT description ([2]; 180 mg QD): Grade 3 fatigue and anorexia; also recorded: Grade 3 AST and ALT elevation | DLTs per total patients treated ([2]; 180 mg QD (intolerable dose level)): 2/5 | patients who experienced DLTs ([2]; 180 mg QD): 2 patients | DLT description ([2]; 200 mg QD): Grade 3 AST elevation; also recorded: Grade 3 ALT elevation | patients with adverse events that met DLT criteria ([2]; 200 mg QD): 2 patients | DLTs per total patients treated ([2]; 200 mg QD (intolerable dose level)): 2/3 | DLT description ([2]; 210 mg QD): Grade 3 AST and ALT elevation; also recorded: Grade 2 ALT elevation and hyperbilirubinemia | DLTs per total patients treated ([2]; 210 mg QD (intolerable dose level)): 2/7 | patients who experienced DLTs ([2]; 210 mg QD): 2 patients | patients discontinued from the study due to toxicity ([2]; 6 of 94 patients): 6% | ≥grade 2 toxicities ([2]; 20, 30, 40, 60 and 90 mg, 1-patient cohorts): no ≥grade 2 toxicities were documented | deaths while on study ([2]; 94 patients): No patients died while on study | ALT elevation (lab), treatment-emergent adverse event ([2]; <130 mg (n = 5), Grade 1–2): 1 (20) n (%) | AST elevation (lab), treatment-emergent adverse event ([2]; <130 mg (n = 5), Grade 1–2): 1 (20) n (%) | Alopecia, treatment-emergent adverse event ([2]; <130 mg (n = 5), Grade 1–2): 1 (20) n (%) | Decreased appetite, treatment-emergent adverse event ([2]; <130 mg (n = 5), Grade 1–2): 0 (0) n (%) | Diarrhea, treatment-emergent adverse event ([2]; <130 mg (n = 5), Grade 1–2): 0 (0) n (%) | Dysgeusia, treatment-emergent adverse event ([2]; <130 mg (n = 5), Grade 1–2): 1 (20) n (%) | Fatigue, treatment-emergent adverse event ([2]; <130 mg (n = 5), Grade 1–2): 2 (40) n (%) | Hemoglobin (lab), treatment-emergent adverse event ([2]; <130 mg (n = 5), Grade 1–2): 3 (60) n (%) | Muscle spasms, treatment-emergent adverse event ([2]; <130 mg (n = 5), Grade 1–2): 2 (40) n (%) | Nausea, treatment-emergent adverse event ([2]; <130 mg (n = 5), Grade 1–2): 1 (20) n (%) | Thrombocytopenia (lab), treatment-emergent adverse event ([2]; <130 mg (n = 5), Grade 1–2): 0 (0) n (%) | Vomiting, treatment-emergent adverse event ([2]; <130 mg (n = 5), Grade 1–2): 0 (0) n (%) | ALT elevation (lab), treatment-emergent adverse event ([2]; <130 mg (n = 5), Grade ≥3): 0 (0) n (%) | AST elevation (lab), treatment-emergent adverse event ([2]; <130 mg (n = 5), Grade ≥3): 0 (0) n (%) | Alopecia, treatment-emergent adverse event ([2]; <130 mg (n = 5), Grade ≥3): 0 (0) n (%) | Decreased appetite, treatment-emergent adverse event ([2]; <130 mg (n = 5), Grade ≥3): 0 (0) n (%) | Diarrhea, treatment-emergent adverse event ([2]; <130 mg (n = 5), Grade ≥3): 0 (0) n (%) | Dysgeusia, treatment-emergent adverse event ([2]; <130 mg (n = 5), Grade ≥3): 0 (0) n (%) | Fatigue, treatment-emergent adverse event ([2]; <130 mg (n = 5), Grade ≥3): 0 (0) n (%) | Hemoglobin (lab), treatment-emergent adverse event ([2]; <130 mg (n = 5), Grade ≥3): 0 (0) n (%) | Muscle spasms, treatment-emergent adverse event ([2]; <130 mg (n = 5), Grade ≥3): 0 (0) n (%) | Nausea, treatment-emergent adverse event ([2]; <130 mg (n = 5), Grade ≥3): 0 (0) n (%) | Thrombocytopenia (lab), treatment-emergent adverse event ([2]; <130 mg (n = 5), Grade ≥3): 0 (0) n (%) | Vomiting, treatment-emergent adverse event ([2]; <130 mg (n = 5), Grade ≥3): 0 (0) n (%) | ALT elevation (lab), treatment-emergent adverse event ([2]; >160 mg (n = 15), Grade 1–2): 11 (73) n (%) | AST elevation (lab), treatment-emergent adverse event ([2]; >160 mg (n = 15), Grade 1–2): 12 (80) n (%) | Alopecia, treatment-emergent adverse event ([2]; >160 mg (n = 15), Grade 1–2): 2 (13) n (%) | Decreased appetite, treatment-emergent adverse event ([2]; >160 mg (n = 15), Grade 1–2): 4 (27) n (%) | Diarrhea, treatment-emergent adverse event ([2]; >160 mg (n = 15), Grade 1–2): 2 (13) n (%) | Dysgeusia, treatment-emergent adverse event ([2]; >160 mg (n = 15), Grade 1–2): 1 (7) n (%) | Fatigue, treatment-emergent adverse event ([2]; >160 mg (n = 15), Grade 1–2): 6 (40) n (%) | Hemoglobin (lab), treatment-emergent adverse event ([2]; >160 mg (n = 15), Grade 1–2): 12 (80) n (%) | Muscle spasms, treatment-emergent adverse event ([2]; >160 mg (n = 15), Grade 1–2): 4 (27) n (%) | Nausea, treatment-emergent adverse event ([2]; >160 mg (n = 15), Grade 1–2): 7 (47) n (%) | Thrombocytopenia (lab), treatment-emergent adverse event ([2]; >160 mg (n = 15), Grade 1–2): 1 (7) n (%) | Vomiting, treatment-emergent adverse event ([2]; >160 mg (n = 15), Grade 1–2): 5 (33) n (%) | ALT elevation (lab), treatment-emergent adverse event ([2]; >160 mg (n = 15), Grade ≥3): 4 (27) n (%) | AST elevation (lab), treatment-emergent adverse event ([2]; >160 mg (n = 15), Grade ≥3): 3 (20) n (%) | Alopecia, treatment-emergent adverse event ([2]; >160 mg (n = 15), Grade ≥3): 0 (0) n (%) | Decreased appetite, treatment-emergent adverse event ([2]; >160 mg (n = 15), Grade ≥3): 1 (7) n (%) | Diarrhea, treatment-emergent adverse event ([2]; >160 mg (n = 15), Grade ≥3): 0 (0) n (%) | Dysgeusia, treatment-emergent adverse event ([2]; >160 mg (n = 15), Grade ≥3): 0 (0) n (%) | Fatigue, treatment-emergent adverse event ([2]; >160 mg (n = 15), Grade ≥3): 2 (13) n (%) | Hemoglobin (lab), treatment-emergent adverse event ([2]; >160 mg (n = 15), Grade ≥3): 1 (7) n (%) | Muscle spasms, treatment-emergent adverse event ([2]; >160 mg (n = 15), Grade ≥3): 0 (0) n (%) | Nausea, treatment-emergent adverse event ([2]; >160 mg (n = 15), Grade ≥3): 0 (0) n (%) | Thrombocytopenia (lab), treatment-emergent adverse event ([2]; >160 mg (n = 15), Grade ≥3): 0 (0) n (%) | Vomiting, treatment-emergent adverse event ([2]; >160 mg (n = 15), Grade ≥3): 0 (0) n (%) | recommended phase II / single-agent dose ([2]; QD, 28-day cycles): 160 mg | dose levels well tolerated ([2]; administered QD): up to 160 mg | hematologic toxicity ([2]; all dose levels): not associated with hematologic toxicity; also recorded: No significant hematologic toxicities | patients reporting alopecia ([2]; at the MTD): 22% | patients reporting muscle spasms ([2]; at the MTD): 33%

— paper PMC3694426 (Clinical cancer research : an official journal of the …, 2013)
